Source: publication PMC11928584, “H105A peptide eye drops promote photoreceptor survival in murine and human models of retinal degeneration” (Communications Medicine, 2025)
Where a SMILES comes first, the peptide text is derived from it.

Key:
[1] = test system: photoreceptors of rd10 mice; test: ONL thickness (histology, spider plot), rd10 mice; format: in vivo, mouse; conditions: for OS length and ONL thickness vs vehicle-treated or untreated eyes: daily eye drops, P21
Description: Both eyes were oriented before enucleation to allow sectioning along the dorsal/ventral axis. Enucleated eyes from rd10 and rd10/Serpinf1^-/- mice were incised in the cornea and fixed in 2.5% glutaraldehyde for 20 min and then in 10% neutral buffered formalin at 4 °C for at least 48 h, followed by paraffin embedding, sectioning, and staining with either H&E or immunofluorescence procedures. Slides containing retinal sections were deparaffinized by immersing the slides in various subsequent ethanol dilutions(100%, 95%,70% and 50%), then rinsed with phosphate-buffered saline, pH 7.4 (PBS, Quality Biological, 119-069-101), followed by incubation in blocking buffer containing 0.5% normal donkey serum (Abcam, ab7475), 0.5% bovine serum albumin (BSA, GoldBio, A-420-100), 0.1% Triton X-100 (Sigma, T8787-100) in PBS pH 7.4 for 2 h at room temperature. For fluorescence microscopy, antibodies, and 0.1 µg/ml DAPI were used to immunostain and counterstain the nuclei, respectively. Antibodies used in the study are listed in Supplementary Table 3. Images were acquired using a ZEIS 700 confocal microscope. Fluorescence intensity was quantified using ImageJ, and a rectangle was selected around regions of interest (ROIs), channels were split for multiple antibodies, threshold was adjusted, noise was de-speckled, and fluorescence intensity was measured.
To generate spider plots, the ONL thickness was measured from images passing through the optic nerve (ON) acquired with light microscopy of the retina sections stained with H&E or images of retina sections stained with DAPI with a dorsal-ventral orientation. The ONL thickness in the entire retina sections was measured at 5 different positions from both sides of the ON using ImageJ[28]. Alternatively, for DAPI stained images, a customed macro implemented in ImageJ was used to select only the ONL.
Fig. 4 Effect of eyedrops of 17-mer and H105A peptides on photoreceptor morphology of rd10 and rd10/Serpinf1^-/- mice. a Illustration of the experimental timeline of peptide application. RE and LE refer to the right and left eyes, respectively. Histological Evaluation. Representative microphotographs of retina sections from rd10 (b) and rd10/Serpinf1^-/- (c) mice treated with 17-mer, H105A, or R99A peptides at 1 mg/ml, or with vehicle (HBSS), compared to wild type C57BL/6 J mice. Sections were stained with hematoxylin and eosin. Spider Plot illustrate the thickness of the outer nuclear layer (ONL) in rd10 (d) and rd10/Serpinf1^-/- (e) mice. Five retinas (n = 5) per group were analyzed and each data point represents the average ± SD per location relative to the optic nerve (ON), analyzed using One-way ANOVA with Šídák’s multiple comparisons test. […]

[2] = test system: retinal function of rd10 mice; test: Electroretinogram (scotopic a- and b-wave), rd10 mice; format: in vivo, mouse
Description: Electroretinogram (ERG) for rd10 and rd10/Serpinf1^-/- mice were dark-adapted overnight and recorded in both eyes of each animal using an Espion E2 system with ColorDome (Diagnosys LLC) with a heated surface. Briefly, pupils were dilated with 1% tropicamide (Akorn, NDC: 17478-101-12) for 10 min and mice were anesthetized with intraperitoneal injection of Zetamine™ (Ketamine hydrochloride injection, USP; VetOne, NDC 13985-584-10) at 92.5 mg/kg, and AnaSed® (xylazine injection, Akorn Pharmaceuticals, NDC 59399-110-20) at 5.5 mg/kg. Mice were placed on the heated surface and electrodes were placed in the mouth and a subdermal platinum needle electrode was placed in the back of the mouse to serve as ground. Responses were elicited with increasing light impulses with intensity from 0.0001 to 10 cd-seconds per meter squared (cd.s/m^2). Amplitudes for a-wave were measured from stimulus to the trough of the a-wave and b-wave amplitudes were measured from a-wave to b-wave trough or peak. The values from the a and b waves for both eyes were exported to Microsoft Excel to obtained amplitude values for each mouse.
Fig. 5 Effect of daily eyedrops of PEDF peptides on ERG a-wave and b-wave retinal function. a Illustration of the experimental timeline of peptide application. RE and LE refer to the right and left eyes, respectively. Representative ERG waveforms for rd10 (b) and rd10/Serpinf1^-/- (c) mice at P21 in response to a light flash (1 cd.s/m²). Amplitude (y-axis) is plotted against time in milliseconds (ms, x-axis). Treatments are indicated to the right of each plot and are color coded, with control wild type C57BL/6 J mice without peptide treatment shown in blue. A-wave and b-wave are indicated by arrows. Photoreceptor a-wave amplitudes. Averages of photoreceptor a-wave amplitudes for rd10 (d) and rd10/Serpinf1^-/- (e) mice as a function of light intensity (cd/s.m², x-axis). Responses of animals treated with 17-mer are shown in green, H105A in black, and vehicle (HBSS) in red. Wildtype responses are shown in blue. Bipolar cell b-wave amplitudes. Averages of bipolar cell b-wave amplitudes for rd10 (f) and rd10/Serpinf1^-/- (g) mice as a function of light intensity (cd/s.m², x-axis), with treatments as indicated in panels. The number of mice evaluated for the data shown in Panels d-g was five (n = 5) for each rd10, rd10/Serpinf1^-/- and wild type. Each data point represents the average ± SD of each genotype, analyzed by ANOVA with Dunnett’s multiple comparisons. Statistical significance between H105A and vehicle is indicated by ##p ≤ 0.01, ###p ≤ 0.001, ####p ≤ 0.0001, and between H105A and 17-mer by **p ≤ 0.01, ***p ≤ 0.001, ****p ≤ 0.0001.

[3] = test system: photoreceptors of RhoP23H/+ mice; test: ONL thickness (DAPI sections, spider plot), RhoP23H/+ mice; format: in vivo, mouse; conditions: daily eye drops 1 mg/ml P14-P19, P19, ventral retina
Description: After embedding in paraffin, 14 μm sections were collected. […] Cone photoreceptors were labeled with anti-Opsin Blue (Merck, cat. AB5407) and anti-Opsin Red/Green (Merck, cat. AB5405). […] For nuclear staining, 0.1 μg/ml DAPI was used. Slides were mounted with Mowiol 4–88 (Merck) and images acquired with a Zeiss Axio Imager A2 fluorescence microscope. To count TUNEL positive cells the RETINA Analysis Tool kit for ImageJ was used[37].
Fig. 6 Effects of eye drops containing H105A peptide in the photoreceptors of Rho^P23H/+ mice. a Scheme of experimental design. Daily peptide eye drops (5 µl of 1 mg/ml peptide) were applied to mice starting at P14 until P19 when immunofluorescence of retinal cross sections was performed. […] Histograms show quantification of immunofluorescence intensity for BAX and BCL2 markers. Five retinas per group were analyzed, with two sections per retina. […]

PEDF-R = conditions: cited from earlier work
[4] = eye drops every other day P15-P23, ERG at P25

Row | SMILES | ONL thickness ([1]; daily eye drops 5 µl of 1 mg/ml P15-P24, assessed P25) | OS length and ONL thickness vs vehicle-treated or untreated eyes [1] | ONL thickness ([1]; eye drops every other day P15-P23, assessed P25) | ERG response to low intensity light ([2]; daily eye drops 5 µl of 1 mg/ml P15-P24, ERG at P25) | ERG a-wave [2, 4] | ERG b-wave [2, 4] | function of rd10 photoreceptors ([2]; eye drops every other day, endpoint extended to P25) | ONL thickness [3] | affinity for PEDF-R (PEDF-R)
1 | CC[C@H](C)[C@H](NC(=O)[C@H](CC(C)C)NC(=O)[C@H](CC(=O)O)NC(=O)[C@H](Cc1ccc(O)cc1)NC(=O)[C@H](Cc1ccc(O)cc1)NC(=O)[C@H](CC(C)C)NC(=O)[C@H](C)NC(=O)[C@H](CCCNC(=N)N)NC(=O)[C@H](C)NC(=O)[C@@H](NC(=O)[C@@H](NC(=O)[C@H](CO)NC(=O)[C@H](CCC(=O)O)NC(=O)[C@@H](NC(=O)[C@H](CCCNC(=N)N)NC(=O)[C@@H](N)CCC(N)=O)[C@@H](C)O)[C@@H](C)CC)[C@@H](C)CC)C(=O)N[C@@H](CO)C(=O)O [H105A] (H-QRTESIIARALYYDLIS-OH) | a rescue in the ONL thickness | longer OS and thicker outer nuclear layer | a rescue in the ONL thickness | improved rod photoreceptor function | an improvement in a-wave of ERG | no significant effect | improved the function of rd10 photoreceptors | preservation of ONL thickness | have affinity for PEDF-R
2 | CC[C@H](C)[C@H](NC(=O)[C@H](CC(C)C)NC(=O)[C@H](CC(=O)O)NC(=O)[C@H](Cc1ccc(O)cc1)NC(=O)[C@H](Cc1ccc(O)cc1)NC(=O)[C@H](CC(C)C)NC(=O)[C@H](C)NC(=O)[C@H](CCCNC(=N)N)NC(=O)[C@H](Cc1c[nH]cn1)NC(=O)[C@@H](NC(=O)[C@@H](NC(=O)[C@H](CO)NC(=O)[C@H](CCC(=O)O)NC(=O)[C@@H](NC(=O)[C@H](C)NC(=O)[C@@H](N)CCC(N)=O)[C@@H](C)O)[C@@H](C)CC)[C@@H](C)CC)C(=O)N[C@@H](CO)C(=O)O [R99A] (H-QATESIIHRALYYDLIS-OH) |  | no effect |  |  |  |  |  |  | lacks PEDF-R affinity
